Data from ChEMBL document CHEMBL3392926, “Antiprotozoal Activity Profiling of Approved Drugs: A Starting Point toward Drug Repositioning”.

Tests used:
Leishmania donovani [1] = assay: microbe, parasite or virus in culture; assay type: functional, organism-based, MHOM/ET/67/L82
Description: DNDI: Leish (axenic) in Vitro, 72 hour

Plasmodium falciparum = assay: microbe, parasite or virus in culture; assay type: functional, organism-based, K1
Description: DNDI: Malaria in Vitro, 72 hour

cells [2] = assay type: functional, cell-based; conditions: Rattus norvegicus, L6, 72 h
Description: DNDI: Cytotoxicity in Vitro, 72 hour, in rat skeletal myoblast cells

cells [3] = assay type: functional, cell-based; conditions: Mus musculus, NMRI, BalbC or CD1 mice, Macrophage, 96 h
Description: DNDI: Cytotoxicity in Vitro, 96 hour, in mouse macrophages (infected-amastigotes)

Trypanosoma cruzi = assay: microbe, parasite or virus in culture; assay type: functional, organism-based, Tulahuen C4 (LacZ)
Description: DNDI: Chagas in Vitro, 96 hour

[4] = system: Trypanosoma brucei rhodesiense; assay: microbe, parasite or virus in culture; assay type: functional, organism-based, STIB 900
Description: DNDI: HAT in Vitro, 72 hour

Leishmania donovani [5] = assay: microbe, parasite or virus in culture; assay type: functional, organism-based, MHOM/ET/67/L82; remark: listed apart in the source
Description: DNDI: Leish (macro) in Vitro, 96 hour

[6] = Leishmania donovani, MHOM/ET/67/L82, 72 h
[7] = Plasmodium falciparum, K1, 72 h
[8] = Trypanosoma cruzi, Tulahuen C4 (LacZ), 96 h
[9] = Trypanosoma brucei, STIB 900, 72 h
[10] = Leishmania donovani, MHOM/ET/67/L82, 96 h

| Compound | IC50 (Leishmania donovani [1]; [6]) [µM] | IC50 (Plasmodium falciparum; [7]) [µM] | IC50 (cells [2]) [µM] | IC50 (cells [3]) [µM] | IC50 (Trypanosoma cruzi; [8]) [µM] | IC50 [4, 9] [µM] | IC50 (Leishmania donovani [5]; [10]) [µM] | IC50 (Leishmania donovani [1]) [µM] | IC50 (Plasmodium falciparum) [µM] | IC50 (Trypanosoma cruzi) [µM] | IC50 [4] [µM] | IC50 (Leishmania donovani [5]) [µM] |
| --- | --- | --- | --- | --- | --- | --- | --- | --- | --- | --- | --- | --- |
| O=C(Nc1ccc([N+](=O)[O-])cc1Cl)c1cc(Cl)ccc1O [NICLOSAMIDE] | 0.15 | 1.14 | 2.3 | 1.01 | 2.49 | 1.67 | > 0.31 |  |  |  |  |  |
| CO[C@H]1/C=C/O[C@@]2(C)Oc3c(C)c(O)c4c(c3C2=O)C2=NC3(CCN(CC(C)C)CC3)NC2=C(NC(=O)/C(C)=C\C=C\[C@H](C)[C@H](O)[C@@H](C)[C@@H](O)[C@H](C)[C@H](OC(C)=O)[C@H]1C)C4=O | 56.4 | 1.59 | 60.9 | > 35.4 | 27.5 | 12.6 | > 35.4 |  |  |  |  |  |
| CCN(CCCCOC(=O)c1ccc(OC)c(OC)c1)C(C)Cc1ccc(OC)cc1 (centres undefined) [MEBEVERINE] | > 210 | 1.74 | 70.8 | > 69.8 | 3.89 | 54.2 | 54.9 |  |  |  |  |  |
| Fc1ccc([C@@H]2CCNC[C@H]2COc2ccc3c(c2)OCO3)cc1 [PAROXETINE] | > 273 | 9.23 | 13.8 | 30.4 | 14.4 | 1.13 | > 9.11 |  |  |  |  |  |
| CC(=O)[C@H]1CC[C@@H]2[C@@H]3CC[C@@H]4C[C@](C)(O)CC[C@]4(C)[C@H]3CC[C@@]12C | 42.5 | > 15 | 23.5 | > 90.2 | 65 | 5.47 | > 30.1 |  |  |  |  |  |
| CC[C@@H]1OC(=O)[C@@H](C)[C@H](O[C@H]2C[C@@](C)(OC)[C@@H](O)[C@H](C)O2)[C@@H](C)[C@H](O[C@H]2O[C@@H](C)C[C@@H](N(C)C)[C@@H]2O)[C@@](C)(O)C[C@H](C)C(=O)[C@@H](C)[C@H](O)[C@@]1(C)O | > 133 | 9.91 | 92.2 | > 39.9 | 114 | 72.1 | > 39.9 |  |  |  |  |  |
| COC1=CC(=O)C[C@@H](C)[C@]12Oc1c(Cl)c(OC)cc(OC)c1C2=O [GRISEOFULVIN] | 87 | 75.1 | 20.5 | > 85 | 87.3 | 40 | > 85 |  |  |  |  |  |
| C[C@H]1[C@@H](OC(=O)CCC(=O)O)O[C@@H]2O[C@]3(C)CC[C@H]4[C@H](C)CC[C@@H]1[C@@]24OO3 | 0.35 | 0.003 | 0.78 | > 7.8 | 8.97 | 16.8 | > 7.8 |  |  |  |  |  |
| CCC(C)n1ncn(-c2ccc(N3CCN(c4ccc(OCC5COC(Cn6cncn6)(c6ccc(Cl)cc6Cl)O5)cc4)CC3)cc2)c1=O (centres undefined) [ITRACONAZOLE] | 2.42 | 1.37 | 1.11 | 4.25 | 0.004 | 8.53 | > 1.42 |  |  |  |  |  |
| CN1CC(=O)N2[C@H](c3ccc4c(c3)OCO4)c3[nH]c4ccccc4c3C[C@@H]2C1=O | 40.1 | > 12.8 | 221 | > 77 | 8.6 | 97.6 | > 77 |  |  |  |  |  |
| AURANOFIN |  |  |  |  |  |  |  | 0.11 | 1.67 | 2.27 | 0.01 | > 1.47 |
| O=C(N/N=C/c1ccc([N+](=O)[O-])o1)c1ccc(O)cc1 [NIFUROXAZIDE] | 2.83 | 7.82 | 12.3 | 36.2 | 0.23 | 0.03 | > 10.9 |  |  |  |  |  |
| CO[C@H]1/C=C/O[C@@]2(C)Oc3c(C)c(O)c4c(O)c(c(/C=N/N5CCN(C)CC5)c(O)c4c3C2=O)NC(=O)/C(C)=C\C=C\[C@H](C)[C@H](O)[C@@H](C)[C@@H](O)[C@H](C)[C@H](OC(C)=O)[C@H]1C | 1.53 | 0.1 | 75.2 | > 36.5 | > 109 | 16.7 | > 36.5 |  |  |  |  |  |
| C[C@@H](c1ncncc1F)[C@](O)(Cn1cncn1)c1ccc(F)cc1F [VORICONAZOLE] | > 286 | > 143 | 195 | > 85.9 | 11.2 | > 286 | > 85.9 |  |  |  |  |  |
| NC(=O)c1cccnc1 [NIACINAMIDE] | > 737 | > 40.9 | > 737 | > 246 | > 737 | > 737 | > 246 |  |  |  |  |  |
| Cc1cccc(N(C)C(=S)Oc2ccc3ccccc3c2)c1 [TOLNAFTATE] | 4.33 | 19 | 84.6 | > 97.6 | 20 | 69.3 | 50.1 |  |  |  |  |  |
| c1ccc(-c2ccc(C(c3ccccc3)n3ccnc3)cc2)cc1 (centres undefined) [BIFONAZOLE] | 5.48 | 3.18 | 39.3 | > 32.2 | 0.003 | 26.8 | > 32.2 |  |  |  |  |  |
| C[C@H]1c2cccc(O)c2C(O)=C2C(=O)[C@]3(O)C(=O)/C(=C(/N)O)C(=O)[C@@H](N(C)C)[C@@H]3[C@@H](O)[C@@H]21 | 24.1 | 4.48 | 14.5 | 67.5 | 39.1 | 63.7 | > 22.5 |  |  |  |  |  |
| CN(C/C=C/C#CC(C)(C)C)Cc1cccc2ccccc12 [TERBINAFINE] | 23 | 7.72 | 47 | > 91.5 | 40.9 | 95.2 | 69.5 |  |  |  |  |  |
| CN(C)c1ccc(O)c2c1C[C@H]1C[C@H]3[C@H](N(C)C)C(O)=C(C(N)=O)C(=O)[C@@]3(O)C(O)=C1C2=O [MINOCYCLINE] | 45.7 | 3.58 | 9.42 | > 21.9 | 22.3 | 36.6 | > 21.9 |  |  |  |  |  |
| COC(=O)N[C@H](C(=O)N[C@@H](Cc1ccccc1)[C@@H](O)CN(Cc1ccc(-c2ccccn2)cc1)NC(=O)[C@@H](NC(=O)OC)C(C)(C)C)C(C)(C)C [ATAZANAVIR] | 24.1 | 7.95 | 46.5 | > 37.5 | 33.3 | 12.7 | > 37.5 |  |  |  |  |  |
| Cc1c(O)cccc1C(=O)N[C@@H](CSc1ccccc1)[C@H](O)CN1C[C@H]2CCCC[C@H]2C[C@H]1C(=O)NC(C)(C)C | 9.62 | 10.4 | 12.1 | > 52.8 | 10.2 | 20.6 | 20.2 |  |  |  |  |  |
| CN1CCC(=C2c3ccccc3CCc3sccc32)CC1 [PIZOTYLINE] |  | 1.86 | 45 | > 102 | 30.6 | 3.99 | > 33.9 |  |  |  |  |  |
| CN(C)CCC=C1c2ccccc2CCc2ccccc21 [AMITRIPTYLINE] |  | 1.16 | 42.2 | 36.1 | 35.1 | 3.03 | > 10.8 |  |  |  |  |  |
| CC(C)c1nc(CN(C)C(=O)N[C@H](C(=O)N[C@@H](Cc2ccccc2)C[C@H](O)[C@H](Cc2ccccc2)NC(=O)OCc2cncs2)C(C)C)cs1 [RITONAVIR] | 8.97 | 16.2 |  |  | 20.7 | 4.3 | > 41.6 |  |  |  |  |  |
